Data: patent US6458773B1, “Nucleoside with anti-hepatitis B virus activity” (Emory University, priority 1998, dated 2002)
Read-outs that look alike come from different tables or passages of the source.

What was measured:
[1] = Cytotoxicity by uptake of neutral red dye; format: cell-based; details: human, Normal Hep G2 cells
Method: (§1) Toxicity analyses were performed in order to assess whether any observed antiviral effects were due to a general effect on cell viability. This can be assessed by the uptake of neutral red dye, a standard and widely used assay for cell viability in a variety of virus-host systems, including HSV (herpes simplex virus) and HIV.
(§2) Toxicity analyses were performed in 96-well flat bottomed tissue culture plates. Cells for the toxicity analyses were cultured and treated with test compounds with the same schedule as used for the antiviral evaluations. Each compound was tested at 4 concentrations, each in triplicate cultures. Uptake of neutral red dye was used to determine the relative level of toxicity. The absorbance of internalized dye at […] (A510) was used for the quantitative analysis. Values are presented as a percentage of the average A510 values (±standard deviations) in 9 separate cultures of untreated cells maintained on the same 96-well plate as the test compounds.

HBV = test: Anti-HBV activity in transfected 2.2.15 cells (HBV DNA replication intermediates, blot hybridization); format: cell-based, hepatitis B virus; details: read-out: EC50 (μM) R.I.
Method: The antiviral evaluations were performed on two separate passages of cells, two cultures per passage (4 cultures total). All wells, in all plates, were seeded at the same density and at the same time.
Due to the inherent variations in the levels of both intracellular and extracellular HBV DNA, only depressions greater than 3.0-fold (for HBV virion DNA) or 2.5-fold (for HBV DNA replication intermediates) from the average levels for these HBV DNA forms in untreated cells are generally considered to be statistically significant [P<0.05] (Korba and Gerin, Antiviral Res. 19: 55-70, 1992). The levels of integrated HBV DNA in each cellular DNA preparation (which remain constant on a per cell basis in these experiments) were used to calculate the levels of intracellular HBV DNA forms, thereby eliminating technical variations inherent in the blot hybridization assays.
Typical values for extracellular HBV virion DNA in untreated cells range from 50 to 150 pg/ml culture medium (average of approximately 76 pg/ml). Intracellular HBV DNA replication intermediates in untreated cells range from 50 to 100 pg/ug cell DNA (average approximately 74 pg/ug cell DNA). In general, depressions in the levels of intracellular HBV DNA due to treatment with antiviral compounds are less pronounced, and occur more slowly, than depressions in the levels of HBV virion DNA.
For reference, the manner in which the hybridization analyses were performed for these experiments results in an equivalence of approximately 1.0 pg intracellular HBV DNA/ug cellular DNA to 2-3 genomic copies per cell and 1.0 pg of extracellular HBV DNA/ml culture medium to 3×10^5 viral particles/ml.
The test compounds were used in the form of stock solutions in DMSO (frozen on dry ice). Daily aliquots of the test samples were made and frozen at −20° C. so that each individual aliquot would be subjected to a single freeze-thaw cycle. The daily test aliquots were thawed, suspended into culture medium at room temperature and immediately added to the cell cultures.
The ability of the active compounds to inhibit the growth of virus in 2.2.15 cell cultures (HepG2 cells transformed with hepatitis virion) was evaluated.

BFU-E = test: Human bone marrow clonogenic assay, BFU-E; format: cell-based; details: effect on cell growth
CFU-GM = test: Human bone marrow clonogenic assay, CFU-GM; format: cell-based; details: effect on cell growth
Normal Hep G2 cells [2] = details: neutral red dye uptake; typically observed in these assays (Korba and Gerin 1992); cited from earlier work
Normal Hep G2 cells [3] = test: Cytotoxicity by uptake of neutral red dye; format: cell-based
Method: as §1, §2

[4] = Transfected 2.2.15 cells, HBV DNA replication intermediates (R.I.)

## [N-]=[N+]=N[C@H]1C[C@H](CO)O[C@@H]1n1cc(F)c(N)nc1=O [L-2-azido-5-FddC, 1-(2,3-Dideoxy-2-azido-β-L-erythro-pentofuranosyl)-5-fluorocytosine]
[1]
  CC50: > 200 µM
HBV; Hepatitis B virus
  EC50: 0.1 µM
BFU-E
  EC50: > 10 µM
CFU-GM
  EC50: > 10 µM

## Nc1ccn([C@@H]2CS[C@H](CO)O2)c(=O)n1 (single isomer, unassigned) [Lamivudine (3TC), (−)-enantiomer of cis-2-hydroxymethyl-5-(cytosin-1-yl)-1,3-oxathiolane]
HBV; [4]
  EC50: 0.03 µM

## [N-]=[N+]=NC1C[C@@H](n2cc(F)c(N)nc2=O)O[C@H]1CO (stereo partly drawn) [L-3-azido-5-FddC, β-L-(3′-azido)-2′,3′-dideoxy-5-fluorocytidine]
[1]
  CC50: > 200 µM
HBV; Hepatitis B virus, Transfected 2.2.15 cells, HBV DNA replication intermediates (R.I.)
  EC50: 0.01 µM
BFU-E
  EC50: 10 µM
CFU-GM
  EC50: 10 µM

## Nc1ccn([C@H]2CC[C@@H](CO)O2)c(=O)n1 [D-ddC, 2′,3′-dideoxycytidine]
Normal Hep G2 cells [2]
  concentration giving a 2-fold reduction in dye uptake versus untreated cultures: 150 to 190 µM
BFU-E
  EC50: 0.05 µM
CFU-GM
  EC50: 0.7 µM

## Cc1cn([C@H]2C[C@H](N=[N+]=[N-])[C@@H](CO)O2)c(=O)[nH]c1=O [Zidovudine (AZT), 3′-azido-3′-deoxythymidine]
BFU-E
  EC50: 0.6 µM
CFU-GM
  EC50: 1.9 µM

## Nc1nc(=O)n([C@H]2CC[C@@H](CO)O2)cc1F [Compound L-5-FddC]
Normal Hep G2 cells [3]
  CC50: > 200 µM
HBV; [4]
  EC50: 0.05 µM
BFU-E
  EC50: 1.8 µM
CFU-GM
  EC50: 1.2 µM
